Source: PMC3386930, “Altering APP Proteolysis: Increasing sAPPalpha Production by Targeting Dimerization of the APP Ectodomain” (PLoS ONE, 2012)
“Also recorded” adds a separate entry of the source.

Columns and labels:
[1] = test system: MBP-eAPP230–624; experiment: Small-angle X-ray scattering (SAXS) of MBP-eAPP230–624 complexes; type: binding; settings: 50 µM compound, 1:12 molar ratio, PBS plus 2% DMSO
Method: (§1) The excitation spectra of the intrinsic tryptophan fluorescence were recorded using either a Shimadzu RF-530PC (Shimadzu Scientific Instruments) or a Spectramax XPS spectrophotometer (Molecular Devices).
The samples were incubated on ice for 20 minutes and then concentrated to 50 µl with 10-kDa cutoff concentrators (Millipore). […] Samples of the filtrates were used for buffer subtraction.
The samples were then concentrated and purified with a Superdex S200 size-exclusion column with 20 mM Tris pH 7.4, 100 mM sodium chloride and 2 mM EDTA. Samples of the protein buffer from the size-exclusion columns were used for buffer subtraction.
Data collection and processing
Small-angle X-ray scattering data were collected using protein concentrations in the range of 0.5–3 mg/ml and an X-ray wavelength of 1.11 Å at beam line 12.3.1 (Advanced Light Source). Data were integrated with software customized for the beam line and processed with the program PRIMUS [30]. The program GNOM [31] was used to calculate the maximum dimension and the radius of gyration and to estimate the intensity of the scattering at zero angle for higher concentration samples.

[2] = target: T1, eAPP230–624 (Homo sapiens, UniProt P05067); experiment: Intrinsic tryptophan fluorescence of eAPP230–624; type: binding
T1 construct: made in house
Method: as §1
Full emission spectra were measured with the Shimadzu RF-530PC using a 3 ml quartz cuvette, a 5 nm slit width and protein concentrations between 0.2–0.6 µM. […] For these larger dilutions, control titrations with the protein alone were used to generate a scaling matrix where the scale factor was both a function of wavelength and dilution. […] A similar scaling matrix was used to correct for the effect of dilution with DMSO. […] All titrations were performed at 24°C. The oligomers were stored on ice during the experiment.
These concentrations are analogous to concentrations used to create complexes for the small angle x-ray scattering analysis. The incubated material was diluted with PBS so that the final protein concentration was 0.5 µM. The spectra were recorded with the Shimadzu […].
For experiments with the Spectromax XPS plate reader, an excitation wavelength of 295 nm was used. This excitation wavelength was chosen to minimize both the contribution of tyrosine in the protein and the background fluorescence of the 96-well plates (Costar #3915).
For the quenching experiments, the data were analyzed by constructing Stern-Volmer plots, F0/F vs. Q, where Fo is the intensity of the fluorescence at zero concentration, F is the intensity of the fluorescence, and Q is the concentration of the quenching agent. When quenching is through either a static (binding) or dynamic (collisional) mechanism this plot is linear and follows the equation: [drawing 1] (1) where Ksv is the quenching constant. When both processes are present the Stern-Volmer plot is quadratic: [drawing 2] (2) where KD is the equilibrium constant associated with dynamic quenching and Ks is the equilibrium constant associated with static quenching. All parameters were determined using PRISM (GraphPad) and the appropriate non-linear curve fitting routine.
The centroid wavelength (λc) was calculated as: [drawing 3] (3) where I(λi) is the intensity observed for the wavelength (λi). The range of wavelengths was 310–390 nm.

[3] = target: T1, eAPP230–624; experiment: Difference absorption spectra of eAPP230–624; type: binding; settings: 1:6 molar ratio, 8.3 µM eAPP230–624, 50 µM compound, PBS plus 2% DMSO
[4] = test system: 7W-CHO cells; experiment: sAPPα and sAPPβ production in 7W-CHO cells (AlphaLISA); type: cell-based; settings: 1 µM compound, 24 hours, 50,000 cells per well, vs 0.01% DMSO
Method: (§2) B103 rat neuroblastoma cells and 7W-CHO cells were seeded at 100,000 or 50,000 cells per well in a 96-well plate and allowed to grow for one day. The B103 rat neuroblastoma cells stably expressing human wild-type APP were a kind gift from Dr. Lennart Mucke (J. David Gladstone Institute of Neurological Disease and University of California, San Francisco). The 7W-CHO cells were a kind gift from Dr. Edward Koo (Department of Molecular Pathology, University of California, San Diego). The cell culture medium was then changed and the cells treated with 1 µM disulfiram, 1 µM sulfiram, or 0.01% DMSO (control). After 24 hours, the amount of sAPPα and sAPPβ produced in the medium was quantified using the AL231C and AL232C AlphaLISA kits from Perkin Elmer, respectively, modified using a custom biotinylated APP antibody.
A) Effect of treatment with disulfiram and sulfiram on sAPPα and Aβ production in 7W-CHO cells. 7W-CHO cells were seeded at 50,000 cells per well in a 96-well plate and allowed to grow for one day. The cell culture medium was then changed and the cells treated with 1 µM disulfiram, 1 µM sulfiram, or 0.01% DMSO (control). After 24 hours, the amount of sAPPα and sAPPβ produced in the medium was quantified using the AL231C and AL232C AlphaLISA kit from Perkin Elmer, modified using a custom biotinylated human APP antibody. B) Effect on the ratio of α to β cleavage in 7W-CHO cells, as calculated by dividing the amount of sAPPα to sAPPβ produced by the 50,000 7W-CHO cells during one day under the effect of either disulfiram, sulfiram or a DMSO control. C) Effect on the ratio of α to β cleavage in B103 cells. B103 neuroblastoma cells were seeded at 100,000 cells per well in a 96-well plate and allowed to grow for one day. The cell culture medium was then changed and the cells treated with 1 µM disulfiram, 1 µM sulfiram, or 0.01% DMSO (Control). After 24 hours, the amount of sAPPα and sAPPβ produced in the medium was quantified using the same modified AL231C and AL232C AlphaLISA kit from Perkin Elmer. The ratio of α to β cleavage was calculated by dividing the amount of sAPPα to sAPPβ produced by the 100,000 B103 cells during one day under the effect of the disulfiram, sulfiram or DMSO control.

[5] = test system: B103 rat neuroblastoma cells stably expressing human wild-type APP; experiment: sAPPα and sAPPβ production in B103 cells (AlphaLISA); type: cell-based; settings: 1 µM compound, 24 hours, 100,000 cells per well, vs 0.01% DMSO
Method: as §2
A) Effect of treatment with disulfiram and sulfiram on sAPPα and Aβ production in 7W-CHO cells. […] After 24 hours, the amount of sAPPα and sAPPβ produced in the medium was quantified using the AL231C and AL232C AlphaLISA kit from Perkin Elmer, modified using a custom biotinylated human APP antibody. B) Effect on the ratio of α to β cleavage in 7W-CHO cells, as calculated by dividing the amount of sAPPα to sAPPβ produced by the 50,000 7W-CHO cells during one day under the effect of either disulfiram, sulfiram or a DMSO control. […]

[6] = test system: MBP-eAPP230–624; experiment: ADAM10 cleavage of MBP-eAPP230–624 in vitro (sAPPα AlphaLISA); type: biochemical; settings: 1 uM disulfiram 15 minutes, then ADAM10 60 minutes
Method: Then, ADAM10 was added for 60 minutes. Time points were taken every 20 minutes.

T1 sequence (P05067 230-624 isoform P05067-4): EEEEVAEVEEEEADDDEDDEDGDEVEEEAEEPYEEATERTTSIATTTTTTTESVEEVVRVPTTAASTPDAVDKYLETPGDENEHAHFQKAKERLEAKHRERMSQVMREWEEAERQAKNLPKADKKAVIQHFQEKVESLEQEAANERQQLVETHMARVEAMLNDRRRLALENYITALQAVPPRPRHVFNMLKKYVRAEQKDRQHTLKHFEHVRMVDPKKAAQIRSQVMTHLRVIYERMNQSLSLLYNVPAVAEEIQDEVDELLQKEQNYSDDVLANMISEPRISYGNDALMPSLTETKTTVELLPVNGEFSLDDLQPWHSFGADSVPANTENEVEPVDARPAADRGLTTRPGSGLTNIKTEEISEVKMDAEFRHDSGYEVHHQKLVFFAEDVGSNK

CCN(CC)C(=S)SSC(=S)N(CC)CC [Disulfiram] was tested, and the “effect on monomer-dimer equilibrium / dimerization of MBP-eAPP230–624 (in words)” value [1] was “inhibits dimerization of MBP-eAPP230–624”, the “effect on monomer-dimer equilibrium / dimerization of MBP-eAPP230–624 (in words)” value ([1]; listed as disulfiram) was “significantly affected the monomer-dimer equilibrium of MBP-eAPP230–624 in favor of the monomer; also recorded: mixture of monomer and dimer” and the “fluorescence peak wavelength (shifted from 344 nm)” value ([2]; 0.64 µM eAPP230–624, disulfiram 0–130 µM) was 357 nm. The “quenching of intrinsic fluorescence (in words)” value ([2]; 0.64 µM eAPP230–624, disulfiram 0–130 µM, sulfiram 0–320 µM, Shimadzu RF-530PC) was “significantly quenched the intrinsic fluorescence”, the “Stern-Volmer slope relative to sulfiram” value ([2]; 0.64 µM eAPP230–624, disulfiram vs sulfiram) was 1.6 times and the “relative binding affinity for eAPP230–624 (in words)” value ([2]; inferred from Stern-Volmer slopes, disulfiram vs sulfiram) was “higher binding affinity for eAPP230–624 than sulfiram”. For the same molecule, the “effect on dimerization of the ectodomain fragment (in words)” value ([2]; intrinsic fluorescence, confirmed with SAXS) was “inhibit dimerization of the ectodomain fragment”, the “change in extinction coefficient” value [3] was “significant drop in the extinction coefficient” and the “sAPPα production / α-cleavage of APP (in words)” value (“sAPPα production / α-cleavage” below) [4] was “increase sAPPα production”. The “sAPPα production / α-cleavage” value ([4]; listed as disulfiram) was “significantly enhance the production of sAPPα; also recorded: enhance α-cleavage significantly”, the “sAPPα production / α-cleavage” value [5] was “significantly enhance the production of sAPPα; also recorded: enhance α-cleavage significantly” and the “accessibility of the α-cleavage site to ADAM10 cleavage (in words)” value [6] was “increase the accessibility of the α-cleavage site near lysine 612 to ADAM10 cleavage”.
